Converted amounts (≈) assume the structure as drawn. The source made the active and inactive calls. The calls are words filed in the database; no cut-off is given here.
Tests used:
[1] = Hemolytic activity in human RBC at 4 ug/ml incubated for 30 mins; format: cell-based, Erythrocyte; conditions: red blood cells (erythrocytes), at 4 µg/mL, read-out: Activity
[2] = tested on: Cryptococcus neoformans; assay: Antifungal activity against Cryptococcus neoformans PFCC 93-589 after 7 days in presence of sorbitol by microdilution assay; format: functional; conditions: PFCC 93-589, 168 h, time 7 day
[3] = tested on: Cryptococcus neoformans; assay: Downregulation of Cxt1p gene expression in Cryptococcus neoformans PFCC 93-589 at 4 ug/ml by SYBR green based RT-PCR analysis; format: functional; conditions: dose 4.0 µg/ml
[4] = Hemolytic activity in human RBC at 16 ug/ml incubated for 30 mins; format: ADME, cell-based, Erythrocyte; conditions: red blood cells (erythrocytes), at 16 µg/mL, read-out: Activity
[5] = tested on: Cryptococcus neoformans; assay: Fungicidal activity against Cryptococcus neoformans PFCC 93-589 by broth microdilution assay; format: functional
[6] = tested on: Cryptococcus neoformans; assay: Antifungal activity against Cryptococcus neoformans PFCC 93-589 assessed as inhibition of melanin production at 0.5 times MIC incubated for 2 to 10 days; format: functional, organism-based; conditions: time 2-10 day
[7] = tested on: Cryptococcus neoformans; assay: Antifungal activity against Cryptococcus neoformans PFCC 93-589 after 2 days in presence of sorbitol by microdilution assay; format: functional; conditions: PFCC 93-589, 48 h, time 2 day
[8] = tested on: Cryptococcus neoformans; assay: Inhibition of ergosterol biosynthesis in Cryptococcus neoformans PFCC 93-589 cell membrane at 0.5 times MIC incubated for 48 hrs by UV-visible spectrophotometric analysis; format: functional, cell membranes
[9] = Hemolytic activity in human RBC at 8 ug/ml incubated for 30 mins; format: ADME, cell-based, Erythrocyte; conditions: red blood cells (erythrocytes), at 8 µg/mL, read-out: Activity
[10] = Cytotoxicity against human HEK293 cells assessed as cell survival at 0.5 times MIC incubated for 24 hrs by MTT assay; format: cell-based; conditions: read-out: Activity
[11] = tested on: Cryptococcus neoformans; assay: Inhibition of ergosterol biosynthesis in Cryptococcus neoformans PFCC 93-589 cell membrane at 1 times MIC incubated for 48 hrs by UV-visible spectrophotometric analysis; format: functional, cell membranes
[12] = Cytotoxicity against human HEK293 cells assessed as cell viability at 2 times MIC incubated for 24 hrs by MTT assay; format: cell-based; conditions: read-out: Activity
[13] = Hemolytic activity in human RBC at 1 ug/ml incubated for 30 mins; format: ADME, cell-based, Erythrocyte; conditions: red blood cells (erythrocytes), at 1 µg/mL, read-out: Activity
[14] = tested on: Cryptococcus neoformans; assay: Antifungal activity against Cryptococcus neoformans PFCC 93-589 assessed as half minimum inhibitory concentration by broth microdilution assay; format: functional
[15] = Cytotoxicity against human HEK293 cells assessed as cell survival at 1 times MIC incubated for 24 hrs by MTT assay; format: cell-based; conditions: read-out: Activity
[16] = tested on: Cryptococcus neoformans; assay: Antifungal activity against Cryptococcus neoformans PFCC 93-589 in presence of Aureobasidin-A by checkerboard microtiter assay; format: functional
[17] = Cytotoxicity against human HEK293 cells assessed as cell survival at 0.25 times MIC incubated for 24 hrs by MTT assay; format: cell-based; conditions: read-out: Activity
[18] = Hemolytic activity in human RBC at 2 ug/ml incubated for 30 mins; format: ADME, cell-based, Erythrocyte; conditions: red blood cells (erythrocytes), at 2 µg/mL, read-out: Activity
[19] = tested on: Cryptococcus neoformans; assay: Antifungal activity against Cryptococcus neoformans PFCC 93-589 by broth microdilution assay; format: functional
[20] = tested on: Cryptococcus neoformans; assay: Upregulation of Lac1 gene expression in Cryptococcus neoformans PFCC 93-589 at 4 ug/ml by SYBR green based RT-PCR analysis; format: functional; conditions: dose 4.0 µg/ml
[21] = tested on: Cryptococcus neoformans; assay: Inhibition of ergosterol biosynthesis in Cryptococcus neoformans PFCC 93-589 cell membrane assessed as ergosterol content at 1 times MIC incubated for 48 hrs by UV-visible spectrophotometric analysis (reference value: 0.134); format: functional, cell membranes
[22] = tested on: Cryptococcus neoformans; assay: Induction of morphological changes in Cryptococcus neoformans PFCC 93-589 assessed as disorganization of cytoplasmic content at 4 ug/ml after 48 hrs by TEM analysis; format: functional, organism-based; conditions: dose 4.0 µg/ml
[23] = tested on: Cryptococcus neoformans; assay: Antifungal activity against Cryptococcus neoformans PFCC 93-589 after 7 days in absence of sorbitol by microdilution assay; format: functional; conditions: PFCC 93-589, 168 h, time 7 day
[24] = tested on: Cryptococcus neoformans; assay: Inhibition of ergosterol biosynthesis in Cryptococcus neoformans PFCC 93-589 cell membrane assessed as ergosterol content at 0.5 times MIC incubated for 48 hrs by UV-visible spectrophotometric analysis (reference value: 0.134); format: functional, cell membranes
[25] = tested on: Cryptococcus neoformans; assay: Induction of morphological changes in Cryptococcus neoformans PFCC 93-589 assessed as disintegration and loosening of cell membrane at 4 ug/ml after 48 hrs by TEM analysis; format: functional, organism-based; conditions: dose 4.0 µg/ml
[26] = tested on: Cryptococcus neoformans; assay: Antifungal activity against Cryptococcus neoformans PFCC 93-589 after 2 days in absence of sorbitol by microdilution assay; format: functional; conditions: PFCC 93-589, 48 h, time 2 day

With OC(Cn1cncn1)(Cn1cncn1)c1ccc(F)cc1F [FLUCONAZOLE] the hemolysis at 0.5 h, 4 ug/ml [1] was 34%, the MIC [2] was 64 µg/mL and the inhibition [3] was “inactive”. The hemolysis at 0.5 h, 16 ug/ml [4] was 53%, the MFC [5] was 16 µg/mL (≈ 52.2 µM) and the Activity [6] was “Active”. The MIC [7] was 16 µg/mL, the inhibition [8] was 59% and the hemolysis at 0.5 h, 8 ug/ml [9] was 42%. The viability at 24 h, 0.5 times MIC [10] was 97.9%, the inhibition [11] was 64.9% and the viability at 24 h, 2 times MIC [12] was 88.6%. It also gave a hemolysis at 0.5 h, 1 ug/ml [13] of 18%, an MIC [14] of 4 µg/mL (≈ 13.1 µM) and a viability at 24 h, 1 times MIC [15] of 95.5%. It also gave an MIC [16] of 0.5 µg/mL, a viability at 24 h, 0.25 times MIC [17] of 99.9% and a hemolysis at 0.5 h, 2 ug/ml [18] of 29%. The MIC [19] was 8 µg/mL (≈ 26.1 µM), the Activity [20] was “inactive” and the Activity [21] was 0.047. For the same compound, the Activity [22] was “Active”, the MIC [23] was 64 µg/mL (≈ 209 µM) and the Activity [24] was 0.055. For the same compound, the Activity [25] was “Active” and the MIC [26] was 16 µg/mL (≈ 52.2 µM).

From ChEMBL document CHEMBL4814046, “Inhibitory effects and mechanism of antifungal action of the natural cyclic depsipeptide, aureobasidin A against Cryptococcus neoformans” (Bioorg Med Chem Lett, 2021)
